Test results published in patent US20210275562A1, “CANCER TREATMENT METHODS” (priority 2020, published 2021).

Legend:
S phase cells = assay: BRDU/EDU injection labelling of S phase cells in living animals; type: in vivo, mouse
From the text: It has been estimated in the literature that the cell cycle would be between 12 hr and 2 days in the crypt cells of the gut. These are the cells that are constantly dividing and give rise to mature gut cells forming the lining of the intestinal tract. […] Both EDU and BRDU are incorporated only into DNA of cells actively synthesizing DNA, S phase cells. Both are rapidly removed from circulation if not incorporated into DNA, so that a cell containing EDU or BRDU in its DNA would have been in S phase at the time of injection, or shortly thereafter. Indeed, an injection of either marker is effectively a 1 hr pulse with that marker. BRDU is identified with an antibody stain, while EDU is identified by a separate chemical stain. Different fluorochromes are used to identify the two stains, so that cells which incorporated either, or both, can readily be identified. With the use of our image analysis approach, the labeling with each fluorochrome can be accurately quantitated.
Thus, with EDU and BRDU, it was possible to determine which cells had been in S phase at two different times. BRDU was normally injected intraperitoneally (IP) into animals at time zero. […] 40 minutes following the EDU injection the animals were euthanized and tissues collected, imbedded in paraffin, and stained. It was possible to tell which cells had been in S phase at the beginning of the experiment from the BRDU stain. […]

crypt cells = assay: Proof of principle: two EDU injections in mice given BRDU in drinking water; type: in vivo, mouse
Method: The experiment to validate this procedure was designed as follows: Mice were given BRDU in their drinking water at the beginning of the experiments. This constant supply of BRDU would label all proliferative cells over the length of the experiment. 4 hr after BRDU-containing drinking water was given to the animals, two injections of EDU were given. These injections were spaced 5, 8, 11, 14, 17, and 20 hr apart in separate animals. At 40 min following the final injection tissue was collected, fixed, imbedded, stained, and analyzed as described above. The goal was to determine how many cells were labeled with BRDU and NOT WITH EDU. EDU in this experiment represents the toxic treatment. Any cell labelled with EDU would be expected to be killed by the appropriate S phase specific toxin. The surviving cells would, therefore, be identified by BRDU positive, EDU negative cells. As with many proof of principle experiments, this one has a drawback that must be considered. BRDU remains present in cells that differentiate and move up the villi towards the lumen of the gut. Cells on the verge of terminal differentiation would be labelled with BRDU but cease dividing prior to the administration of EDU. This would result in an over-estimate of the number of BRDU+ and EDU− cells (those that survive the treatments), particularly at later times in the analysis. […]

Row | effective pulse length of the marker after one injection (S phase cells; mouse, in vivo) | Compound | effective pulse length of the marker after one injection (S phase cells; rapidly removed from circulation if not incorporated into DNA) | BRDU positive cells remaining unlabeled with EDU (cells proposed to survive treatment) (crypt cells; two EDU injections spaced 14 hr apart) | level of BRDU+ and EDU- cells (cells proposed to survive treatment) (crypt cells; two EDU injections spaced 17 hr apart, may be overestimated)
1 | 1 h | O=c1[nH]c(=O)n([C@H]2C[C@H](O)[C@@H](CO)O2)cc1Br [BRDU, bromodeoxyuridine] |  |  | 
2 |  | C#Cc1cn([C@H]2C[C@H](O)[C@@H](CO)O2)c(=O)[nH]c1=O [EDU, 5-ethynyl-2′-deoxyuridine] | 1 h | ~40% | remain high
